Results as given in patent US20240269139A1, “COMPOUNDS FOR TARGETED PROTEIN DEGRADATION OF KINASES” (DANA-FARBER CANCER INSTITUTE, INC., priority 2020, published 2024).
Like-named read-outs stand apart in the source and are kept apart here.

Columns and labels:
Format in all cases: cell-based
[1] = target: protein kinases (human kinome) (Homo sapiens, UniProt P51451); settings: for logFC BLK: BLK (P51451), direction down; for logFC of BLK: BLK P51451, experiment wp016; for logFC of BLK (P51451): down
[2] = target: protein kinases (human kinome) (Homo sapiens, UniProt Q00534); settings: for logFC CDK6: CDK6 (Q00534), direction down; for logFC of CDK6 (Q00534): down
[3] = target: protein kinases (human kinome) (Homo sapiens, UniProt Q2M2I8)
protein kinases (human kinome) (Homo sapiens, UniProt Q2M2I8), sequence (Q2M2I8 whole entry): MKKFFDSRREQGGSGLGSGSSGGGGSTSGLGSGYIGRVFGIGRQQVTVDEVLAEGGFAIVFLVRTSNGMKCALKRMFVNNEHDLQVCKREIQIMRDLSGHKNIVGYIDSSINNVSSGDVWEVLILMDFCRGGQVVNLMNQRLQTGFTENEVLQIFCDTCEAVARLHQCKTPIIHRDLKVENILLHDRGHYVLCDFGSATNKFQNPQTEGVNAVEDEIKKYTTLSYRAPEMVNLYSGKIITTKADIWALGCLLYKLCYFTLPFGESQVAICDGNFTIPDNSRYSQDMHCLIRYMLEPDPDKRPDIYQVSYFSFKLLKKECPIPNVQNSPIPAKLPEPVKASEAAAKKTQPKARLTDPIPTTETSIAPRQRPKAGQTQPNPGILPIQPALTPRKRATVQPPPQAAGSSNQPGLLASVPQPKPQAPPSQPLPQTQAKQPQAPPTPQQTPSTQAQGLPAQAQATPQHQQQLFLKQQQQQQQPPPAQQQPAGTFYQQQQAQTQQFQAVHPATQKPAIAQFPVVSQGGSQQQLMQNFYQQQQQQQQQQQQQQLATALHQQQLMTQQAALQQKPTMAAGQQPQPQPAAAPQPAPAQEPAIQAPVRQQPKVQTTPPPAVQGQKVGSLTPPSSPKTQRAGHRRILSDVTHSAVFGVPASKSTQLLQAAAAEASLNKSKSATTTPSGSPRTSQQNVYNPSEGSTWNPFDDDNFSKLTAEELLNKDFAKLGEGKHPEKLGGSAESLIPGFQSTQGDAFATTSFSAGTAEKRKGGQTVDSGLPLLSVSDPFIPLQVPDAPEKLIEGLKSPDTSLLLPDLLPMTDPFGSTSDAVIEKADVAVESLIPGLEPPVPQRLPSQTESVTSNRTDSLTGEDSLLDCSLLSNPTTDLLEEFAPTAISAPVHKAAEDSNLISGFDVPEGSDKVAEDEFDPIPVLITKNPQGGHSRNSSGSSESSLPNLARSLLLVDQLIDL

protein kinases (human kinome) (Homo sapiens, UniProt Q00534), sequence (Q00534 whole entry): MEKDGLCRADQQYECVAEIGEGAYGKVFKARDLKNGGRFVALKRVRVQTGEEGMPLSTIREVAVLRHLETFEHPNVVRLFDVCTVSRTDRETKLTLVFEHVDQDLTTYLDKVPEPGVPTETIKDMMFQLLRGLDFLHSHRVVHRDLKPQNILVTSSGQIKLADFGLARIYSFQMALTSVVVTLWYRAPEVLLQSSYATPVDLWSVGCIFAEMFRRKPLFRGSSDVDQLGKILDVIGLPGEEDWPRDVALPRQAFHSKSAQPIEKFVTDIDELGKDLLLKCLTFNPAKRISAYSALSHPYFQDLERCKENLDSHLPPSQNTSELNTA
protein kinases (human kinome) (Homo sapiens, UniProt P51451), sequence (P51451 whole entry): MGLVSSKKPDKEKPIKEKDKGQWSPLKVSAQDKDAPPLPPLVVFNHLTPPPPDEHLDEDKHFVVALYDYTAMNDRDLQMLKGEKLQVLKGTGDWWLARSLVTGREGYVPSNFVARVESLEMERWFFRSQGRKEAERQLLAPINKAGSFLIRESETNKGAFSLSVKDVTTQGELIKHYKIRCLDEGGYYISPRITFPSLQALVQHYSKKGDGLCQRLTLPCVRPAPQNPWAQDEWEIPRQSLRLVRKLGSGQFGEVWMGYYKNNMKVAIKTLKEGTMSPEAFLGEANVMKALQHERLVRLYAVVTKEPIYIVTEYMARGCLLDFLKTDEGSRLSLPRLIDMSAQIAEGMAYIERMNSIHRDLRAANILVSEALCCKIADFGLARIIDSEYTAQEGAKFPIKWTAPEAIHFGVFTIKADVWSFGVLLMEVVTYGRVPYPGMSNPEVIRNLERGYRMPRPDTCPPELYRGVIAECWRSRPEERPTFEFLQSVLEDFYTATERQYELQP

## CC(C)S(=O)(=O)c1ccccc1Nc1nc(Nc2ccc(N3CCN(CCOCCNC(=O)CNc4cccc5c4C(=O)N(C4CCC(=O)NC4=O)C5=O)CC3)cc2)ncc1Cl (stereo not shown) [SK.3.91]
[1]; experiment wp133, 4 hr
  logFC BLK: −1.49
[1]; experiment wp160, 2 hr
  logFC BLK: −0.8744
[1]; experiment wp160, 4 hr
  logFC BLK: −1.678
[1]
  logFC of BLK: −1.446
[1]; 1 uM
  logFC of BLK: −1.977
[1]; Experiment wp016, 1 uM
  logFC of BLK (P51451): −1.977
[1]; Experiment wp016
  logFC of BLK (P51451): −1.446
[1]; Experiment wp103
  logFC of BLK (P51451): −1.625
[1]; Experiment wp107
  logFC of BLK (P51451): −1.649
[1]; Experiment wp133, 1 hr
  logFC of BLK (P51451): −0.3727
[1]; Experiment wp133, 2 hr
  logFC of BLK (P51451): −0.8217
[1]; Experiment wp133, 4 hr
  logFC of BLK (P51451): −1.49
[1]; Experiment wp160, 2 hr
  logFC of BLK (P51451): −0.8744
[1]; Experiment wp160, 4 hr
  logFC of BLK (P51451): −1.678
[2]; experiment wp016
  logFC CDK6: −0.8832
[2]; experiment wp016, 1 uM
  logFC CDK6: −1.149
[2]; experiment wp103
  logFC CDK6: −0.9349
[2]; experiment wp105
  logFC CDK6: −0.5421
[2]; experiment wp107
  logFC CDK6: −1.012
[2]; experiment wp133, 1 hr
  logFC CDK6: −0.3542
[2]; experiment wp133, 2 hr
  logFC CDK6: −0.6404
[2]; experiment wp133, 4 hr
  logFC CDK6: −1.05
[2]; experiment wp160, 1 hr
  logFC CDK6: −0.3255
[2]; experiment wp160, 2 hr
  logFC CDK6: −0.5948
[2]; experiment wp160, 4 hr
  logFC CDK6: −1.133
[2]; Experiment wp016, 1 uM
  logFC of CDK6 (Q00534): −1.149
[2]; Experiment wp016
  logFC of CDK6 (Q00534): −0.8832
[2]; Experiment wp103
  logFC of CDK6 (Q00534): −0.9349
[2]; Experiment wp105
  logFC of CDK6 (Q00534): −0.5421
[2]; Experiment wp107
  logFC of CDK6 (Q00534): −1.012
[2]; Experiment wp133, 1 hr
  logFC of CDK6 (Q00534): −0.3542
[2]; Experiment wp133, 2 hr
  logFC of CDK6 (Q00534): −0.6404
[2]; Experiment wp133, 4 hr
  logFC of CDK6 (Q00534): −1.05
[2]; Experiment wp160, 1 hr
  logFC of CDK6 (Q00534): −0.3255
[2]; Experiment wp160, 2 hr
  logFC of CDK6 (Q00534): −0.5948
[2]; Experiment wp160, 4 hr
  logFC of CDK6 (Q00534): −1.133
[3]; AAK1 (Q2M218-1), experiment wp016, 1 uM, down
  logFC AAK1: −1.114
[3]; AAK1 (Q2M218-1), experiment wp016, down
  logFC AAK1: −1.364
[3]; AAK1 (Q2M218-1), experiment wp103, down
  logFC AAK1: −0.7763
[3]; AAK1 (Q2M218-1), experiment wp105, down
  logFC AAK1: −1.575
[3]; AAK1 (Q2M218-1), experiment wp107, down
  logFC AAK1: −1.059
[3]; AAK1 (Q2M218-1), experiment wp114, down
  logFC AAK1: −0.8221
[3]; AAK1 (Q2M218-1), experiment wp133, 2 hr, down
  logFC AAK1: −0.5506
[3]; AAK1 (Q2M218-1), experiment wp133, 4 hr, down
  logFC AAK1: −1.105
[3]; AAK1 (Q2M218-1), experiment wp160, 2 hr, down
  logFC AAK1: −0.5153
[3]; AAK1 (Q2M218-1), experiment wp160, 4 hr, down
  logFC AAK1: −1.008
[3]; AAK1 (Q2M218-1), experiment wp172, down
  logFC AAK1: −0.9755
[3]; AAK1, accession Q2M218-1, experiment wp016, 1 uM, direction of change down
  logFC AAK1: −1.114
[3]; AAK1, accession Q2M218-1, experiment wp016, direction of change down
  logFC AAK1: −1.364
[3]; AAK1, accession Q2M218-1, experiment wp103, direction of change down
  logFC AAK1: −0.7763
[3]; AAK1, accession Q2M218-1, experiment wp105, direction of change down
  logFC AAK1: −1.575
[3]; AAK1, accession Q2M218-1, experiment wp107, direction of change down
  logFC AAK1: −1.059
[3]; AAK1, accession Q2M218-1, experiment wp114, direction of change down
  logFC AAK1: −0.8221
[3]; AAK1, accession Q2M218-1, experiment wp133, 2 hr, direction of change down
  logFC AAK1: −0.5506
[3]; AAK1, accession Q2M218-1, experiment wp133, 4 hr, direction of change down
  logFC AAK1: −1.105
[3]; AAK1, accession Q2M218-1, experiment wp160, 2 hr, direction of change down
  logFC AAK1: −0.5153
[3]; AAK1, accession Q2M218-1, experiment wp160, 4 hr, direction of change down
  logFC AAK1: −1.008
[3]; AAK1, accession Q2M218-1, experiment wp172, direction of change down
  logFC AAK1: −0.9755
